The values below are quoted from earlier work in US6200602A, “Composition for enhanced uptake of polar drugs from the colon” (priority 1995, dated 2001).

The conditions of series [1]: literature knowledge.
For series [2] the following is noted: oral / gastrointestinal tract.
For series [3] the following is noted: rat intestine; sodium caprate and sodium glycocholate as enhancers.
For series [4] the following is noted: absorption enhancer in the gastrointestinal tract.

`CCCCCCCCCC(=O)[O-].[Na+]` [sodium caprate]: in series [1], the absorption promoting effect entry is reported as “can act as an absorption promoting agent”.

As for `O=C(O)c1cc(=O)c2c(OCC(O)COc3cccc4oc(C(=O)O)cc(=O)c34)cccc2o1` [sodium cromoglycate], the “absorption when dosed orally” value in series [2] is given as “poor or erratic absorption”. Consider `CNC(=C[N+](=O)[O-])NCCSCc1ccc(CN(C)C)o1` [ranitidine], for which, in series [2], the “absorption when dosed orally” value was “poor or erratic absorption”. Consider insulin: polypeptide drug, for which the “preferred site for insulin absorption” value in series [3] was “the ileum was the most preferred site for insulin absorption”.

For the molecule `C[C@H](CS)C(=O)N1CCC[C@H]1C(=O)O` [captopril], in series [2], the “absorption when dosed orally” value is listed as “poor or erratic absorption”.

With `C[C@H](CCC(=O)O)[C@H]1CC[C@H]2[C@@H]3CC[C@@H]4C[C@H](O)CC[C@]4(C)[C@H]3C[C@H](O)[C@]12C` [sodium deoxycholate], the absorption promoting effect entry in series [1] is “known to act as an absorption enhancer in the gastrointestinal tract”. Also, the “side effect and toxicity” value in series [4] is “associated with potential side effect (diarrhoea) and toxicity”. Consider `CN/C(=N/CCSCc1nc[nH]c1C)NC#N` [cimetidine], for which the “absorption when dosed orally” value in series [2] is given as “poor or erratic absorption”. Consider `O=P(O)(O)C(Cl)(Cl)P(=O)(O)O` [clodronate], for which the “absorption when dosed orally” value in series [2] is given as “poor or erratic absorption”.
